Data published in patent US20050014193A1, “Identification of target-specific folding sites in peptides and proteins” (priority 2003, published 2005).
Square brackets hold non-standard residues; d marks the D form. Peptide text beside a SMILES is read from it. Nle = CCCC[C@H](N)C(=O)O

What was measured:
MC1-R = target: T1, MC1-R (Mus musculus, UniProt Q01727); experiment: Competitive inhibition of 125I-NDP-alpha-MSH binding, B-16 mouse melanoma cell membranes
T1 construct: B-16 mouse melanoma cells (containing MC1-R); endogenous in cells; host or cells: B-16 mouse melanoma cells (membranes)
Text: (§1) Ac-Nle-Ala-His-D-Phe-Arg-Trp-NH2 is a known receptor-binding sequence for melanotropin receptors. […] A series of metallopeptides based on this sequence were synthesized by inserting a Cys residue after the 2 position and through the n+1 position and complexing the resulting Cys-containing peptide with an Re-oxo metal ion core as described Example 1. The resulting metallopeptides were screened for inhibiting the binding of 125-I-NDP-alpha-MSH radioligand using B-16 mouse melanoma cells for MCR-1 and cloned human MCR-2, -3 and -4 receptor transfected 293 cells.
(§2) The competitive inhibition binding assay was conducted using membranes prepared from hMC3-R, hMC4-R, hMC5-R, and B-16 mouse melanoma cells (containing MC1-R) using 0.4 nM ^125I-NDP-alpha-MSH (New England Nuclear, Boston, Mass., USA) in 50 mM HEPES buffer containing 1 mM MgCl2, 2 mM CaCl2, and 5 mM KCl, at pH 7.2. The assay tube also contained a chosen concentration of the test peptide of this invention, complexed to a rhenium metal ion as indicated, for determining its efficacy in inhibiting the binding of ^125I-NDP-alpha-MSH to its receptor. […] The filter was dried and counted in a gamma counter for remaining radioactivity bound to the membranes. 100% specific binding was defined as the difference in radioactivity (cpm) bound to cell membranes in the absence and presence of 1 μM alpha-MSH. […]

hMC4-R = target: T2, hMC4-R (Homo sapiens, UniProt P32245); experiment: Competitive inhibition of 125I-NDP-alpha-MSH binding, hMC4-R membranes
T2 construct: expressed in transfected cells; host or cells: 293 cells
Text: as §1, §2

uPA receptor = target: T3, uPA receptor (Homo sapiens, UniProt Q03405); experiment: uPA receptor-binding assay using U937 cells and ATF as competitive ligand; conditions: within the Table 1 series
T3 construct: endogenous in cells; host or cells: U937 cells
T3 sequence (Q03405 23-305): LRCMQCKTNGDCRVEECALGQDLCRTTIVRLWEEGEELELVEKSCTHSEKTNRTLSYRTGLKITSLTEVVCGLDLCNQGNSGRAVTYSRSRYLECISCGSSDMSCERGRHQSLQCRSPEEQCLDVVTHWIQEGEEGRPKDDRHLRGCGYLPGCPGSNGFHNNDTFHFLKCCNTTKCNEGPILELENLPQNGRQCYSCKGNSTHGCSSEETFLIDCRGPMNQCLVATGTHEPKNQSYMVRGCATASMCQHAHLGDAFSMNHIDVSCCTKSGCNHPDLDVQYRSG

T1 sequence (Q01727 whole entry): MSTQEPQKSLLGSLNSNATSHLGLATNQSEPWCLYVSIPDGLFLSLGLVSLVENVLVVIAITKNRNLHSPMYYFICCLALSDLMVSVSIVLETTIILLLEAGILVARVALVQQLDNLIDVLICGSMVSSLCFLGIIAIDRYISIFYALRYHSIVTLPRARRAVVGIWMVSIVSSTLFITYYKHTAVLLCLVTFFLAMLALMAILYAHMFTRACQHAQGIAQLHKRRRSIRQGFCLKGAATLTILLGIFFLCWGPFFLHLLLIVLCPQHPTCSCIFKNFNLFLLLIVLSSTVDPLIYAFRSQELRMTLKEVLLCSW
T2 sequence (P32245 whole entry): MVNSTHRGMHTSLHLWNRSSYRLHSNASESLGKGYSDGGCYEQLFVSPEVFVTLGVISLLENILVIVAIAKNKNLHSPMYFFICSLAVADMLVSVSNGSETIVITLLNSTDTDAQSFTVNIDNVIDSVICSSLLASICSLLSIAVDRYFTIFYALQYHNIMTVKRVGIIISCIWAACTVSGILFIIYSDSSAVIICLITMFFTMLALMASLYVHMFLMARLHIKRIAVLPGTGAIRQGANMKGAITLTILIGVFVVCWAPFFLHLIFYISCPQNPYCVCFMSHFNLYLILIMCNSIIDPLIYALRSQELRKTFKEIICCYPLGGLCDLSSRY

Compound | Ki (MC1-R) [nM] | Ki (hMC4-R) [nM] | relative potency in uPA receptor binding (uPA receptor)
CCCC[C@H](NC(C)=O)C(=O)N[C@@H](C)C(=O)N[C@@H](Cc1c[nH]cn1)C(=O)N[C@H](Cc1ccccc1)C(=O)N[C@@H](CCCNC(=N)N)C(=O)N[C@@H](Cc1c[nH]c2ccccc12)C(N)=O [Ac-Nle-Ala-His-D-Phe-Arg-Trp-NH2] (Ac-[Nle]AH[dF]RW-NH2) | 100 | 2000 | 
Ac-Val-Ser-Asn-Lys-Tyr-Phe-Ser-Asn-Ile-His-Cys-Trp-NH2 (Ac-VSNKYFSNIHCW-NH2; not fully specified (bridges); printed as Ac-Val-Ser-Asn-Lys-Tyr-Phe-Ser-Asn-Ile-His-Cys-Trp-NH2; also: oxorhenium(V) N3S1 metal chelate (Re=O)) [SEQ ID NO: 3] |  |  | most potent of all these molecules
